Test results reported in ChEMBL document CHEMBL1154641 (Bioorg Med Chem Lett, 2009).
pKi: −log10 of the molar value.

Target: T1, Carbonic anhydrase 2 (Mycobacterium tuberculosis, UniProt P9WPJ9)
T1 sequence (P9WPJ9 whole entry): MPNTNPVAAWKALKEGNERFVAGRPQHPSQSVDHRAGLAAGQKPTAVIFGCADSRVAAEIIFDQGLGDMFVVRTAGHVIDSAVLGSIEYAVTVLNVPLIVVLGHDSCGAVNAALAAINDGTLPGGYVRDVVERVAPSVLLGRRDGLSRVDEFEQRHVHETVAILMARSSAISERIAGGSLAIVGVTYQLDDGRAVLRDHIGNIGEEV
Description: Inhibition of full length Mycobacterium tuberculosis H37Rv recombinant carbonic anhydrase 2 encoded by RV3588c by stopped flow CO2 hydration assay

**Q.** How did the pKi turn out when `Nc1ccc(S(N)(=O)=O)cc1I` was run?
**A.** 4.49

**Q.** `NS(=O)(=O)c1nnc(-c2ccccc2Cl)s1` was tested. Which pKi did it give?
**A.** 4.34

**Q.** `Nc1ccc(S(N)(=O)=O)cc1Br` was tested. Which pKi did it give?
**A.** 4.50

**Q.** How did the pKi turn out when `NS(=O)(=O)c1ccc(CO)cc1` was run?
**A.** 4.42

**Q.** `NCCc1ccc(S(N)(=O)=O)cc1` was tested. Which pKi did it give?
**A.** 4.54

**Q.** With `Nc1ccc(S(=O)(=O)NCCc2ccc(S(N)(=O)=O)cc2)cc1` as the compound, how does the pKi read?
**A.** 5.64

**Q.** How did the pKi turn out when `NS(=O)(=O)c1ccc(S(=O)(=O)Nc2cccc3c(Cl)c[nH]c23)cc1` was run?
**A.** 6.14

**Q.** How did the pKi turn out when `NCc1ccc(S(N)(=O)=O)cc1` [MAFENIDE] was run?
**A.** 4.51

**Q.** With `Cc1ccc(S(N)(=O)=O)cc1` [P-TOLUENESULFONAMIDE] as the compound, how does the pKi read?
**A.** 4.41
